Measured values as given in patent publication US20240018146A1, “COMPOSITIONS AND METHODS OF USING THE SAME FOR TREATMENT OF NEURODEGENERATIVE AND MITOCHONDRIAL DISEASE” (MITOKININ, INC., priority 2020, published 2024).
Entries after “also recorded” stand apart in the source; their conditions may differ. Read-outs that look alike come from different tables or passages of the source.

Assays:
pS129 α-syn = assay: Preformed fibril (PFF) model in primary neuron culture, pS129 α-syn; format: cell-based
Procedure, shortened: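 Primary hippocampal neurons from P0 mouse pups grown 7 days, then exposed to alpha-synuclein preformed fibrils at 5 ug/ml. Read-out is pS129 alpha-synuclein.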

HeLa MKYP cells [1] = assay: Human mitophagy assay (HeLa mKeima assay, FACS); format: cell-based; conditions: for percentage of cells undergoing mitophagy: HeLa cells expressing mtKeima, FCCP and Oligomycin, FACS, FIG. 28; for EC50: Homo sapiens, HeLa
Procedure, shortened: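 Mitophagy, read by FACS as the share of cells showing the lysosomal mtKeima emission shift, followed 6 h of 1 uM FCCP/oligomycin stimulation. Before that, HeLa MKYP cells spent 16 h with compound over a concentration range.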

[2] = Inspection of crystallization and round cells; format: physicochemical; design: key: 1=yes crystals; 0=no crystals
Protocol: 5. Inspection of Crystallization and Round Cells
Briefly, the Hela MKYP (Mito-Keima/YFP-Parkin) cells were seeded at 10K cells/well. EP/MTK compounds were added at seeding (cells were still in suspension). The cells were incubated with the EP/MTK compounds for 16 hours, then 1 μM FCCP/oligomycin was added for 6 hours. Prior to harvesting, cells were scored by eye under 20× magnification for the presence or absence of crystalline or aggregated compound, or round cells.

Parkin = Parkin recruitment to mitochondria (HeLa cells expressing YFP-tagged Parkin, longitudinal imaging); format: cell-based, human; conditions: FCCP and Oligomycin, cells with Parkin recruited at 60 minutes, FIG. 29
Protocol: HeLa cells expressing a YFP-tagged Parkin were treated with […] of FCCP and Oligomycin followed by the specified dose of compound, then analyzed by longitudinal imaging. Percentage of cells with Parkin recruited to mitochondria at 60 minutes is shown.

HeLa MKYP cells [3] = assay: Cell death measured by DAPI staining, with 1 μM FCCP/oligomycin or no toxin (no FO); format: cell-based
Procedure, shortened: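 Cell death was read by DAPI staining after 6–6.5 h compound exposure in HeLa MKYP cells, either with 1 μM FCCP/oligomycin or without toxin. H2O2 served as the cell-death control.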

[4] = Mitotoxicity / Mitotox safety margin (therapeutic window); format: cell-based
pathologic (pS129) α-syn = assay: In vivo α-syn (PFF) model, pathologic pS129 α-syn in striatum; design: species or system mice; conditions: oral BID dosing at 50, 25, 12.5, and 6.25 mg/kg
Protocol: FIG. 9A and FIG. 9B show representative in vivo data of EP-0040180 in an α-syn (PFF) model.
Mouse and human alpha-synuclein monomers have been sourced commercially, then pre-formed fibrils have been generated as per the detailed protocol provided by the MJFF. For in vitro experiments primary hippocampal neurons isolated from P0 pups were grown for 7 days after which PFFs at 5 ug/ml were introduced Pre-formed fibrils will be introduced via stereotactic injection into the striatum of wt (C57BL/6J, Jax #000664) and transgenic A53T mice (B6;C3-Tg(Prnp-SNCA*A53T)83Vle/J, Jax #004479). Cohorts of drug-treated (oral gavage) and untreated animals will then be allowed to age for up to 6 months, at which point they will be sacrificed and perfused. Brains will be removed and fixed, then sectioned for analysis. We anticipate that untreated A53T animals will show significant spreading of aggregated alpha-synuclein pathology and pS129 staining, as well as some possible neurodegeneration; wt animals are also expected to show pS129 synuclein staining and synuclein aggregation, albeit less than that seen in the A53T background.

cleaved caspase-3 = assay: Cleaved caspase-3 levels in primary neuron culture; format: cell-based; conditions: compared with toxins
Gdf15, Tnfrsf12a = assay: Cisplatin challenge, kidney expression of mitochondrial-stress related genes (quantitative PCR); format: in vivo, mice (C57Bl/6); conditions: 10 mg/kg cisplatin i.p., oral gavage QD for three days
Protocol: (§1) Mice were provided at least one week of acclimation to the animal facility and group housed. Mice were injected intraperitoneally with 1 mg/ml cisplatin solution (BluePoint Labs) or 10 ml/kg sterile-filtered saline using 29G insulin syringes. Mice were weighed and administered vehicle, 35985 or 40180 by oral gavage per the dosing regimens noted in the figures. Mice were monitored for excessive weight loss and euthanized if moribund.
(§2) 35985 and 40180 are formulated at ten-fold the dosing concentration in NMP (N-methylpyrrolidone) followed by dilution with solutol-15 and water for a final vehicle concentration of 10% NMP/10% solutol-15/80% water.
RNA was isolated from kidney samples using Rneasy Mini kit (Qiagen) according to its product manual. RNA concentration was measured using NanoDrop™ 2000/2000c Spectrophotometers (Thermo Scientific). 50 ng of RNA for each sample was used to generate cDNA. cDNA was synthesized using High-Capacity RNA-to-cDNA™ Kit (Thermo Scientific) according to its product manual. Quantitative PCR was performed using Power SYBR™ Green PCR Master Mix (Applied Biosystems) according to its product manual. The following primers were used to analyze gene expression levels in the kidney: […]
All gene expression levels were normalized to expression levels of beta-actin using ΔΔCt and expressed as fold change relative to cisplatin vehicle treated mice. […]

KIM-1 = assay: Cisplatin challenge, kidney injury marker (KIM-1) in urine; format: in vivo, mice (C57Bl/6); conditions: 10 mg/kg cisplatin i.p., oral gavage QD, day 3 post-challenge
Protocol: as §1, §2
Urine was collected from scruffed mice (serial collection) or directly from bladder using insulin syringe during harvest (terminal collection). KIM-1 was measured in mouse urine using R&D System's Mouse TIM-1/KIM-1/HAVCR DuoSet ELISA following manufacturer's published protocol.
Referring to FIG. 36, mice (C57Bl/6) were challenged with a single intraperitoneal dose of 10 mg/kg cisplatin or saline and dosed by oral gavage once per day (QD) with 40180.

## FC(F)(F)c1cc2c(NC3CCCc4ccccc43)ncnc2[nH]1 (single isomer, unassigned) [EP-0035985]
pS129 α-syn; FIG. 8A-C
  pathological α-synuclein levels in primary neurons: reduce pathological α-synuclein levels
HeLa MKYP cells [1]; 1 μM FCCP/oligomycin
  E102 max mitophagy, fold over DMSO: 4.43 fold over DMSO
HeLa MKYP cells [1]
  percentage of cells undergoing mitophagy: induce mitophagy in a dose dependent manner; also recorded: dose responsive increase in the percentage of cells undergoing mitophagy
HeLa MKYP cells [1]; mitophagy, 1 μM FCCP/oligomycin, read-out: E100 EC50
  EC50: 330 nM
HeLa MKYP cells [1]; mitophagy, 1 μM FCCP/oligomycin
  E101 lowest effective dose: 0.31 µM
[2]; 0.1 μM compound
  visual inspection of crystallization: 0
[2]; 0.3 μM compound
  visual inspection of crystallization: 0
[2]; 0.9 μM compound
  visual inspection of crystallization: 0
[2]; 2.8 μM compound
  visual inspection of crystallization: 0
[2]; 8.3 μM compound
  visual inspection of crystallization: 0
[2]; 25.0 μM compound, HeLa MKYP culture, 20× magnification
  visual inspection of crystallization: 0
Parkin
  Parkin recruitment to mitochondria: accelerate recruitment of Parkin to mitochondria; also recorded: dose responsive increase in the rate of Parkin recruitment to mitochondria
HeLa MKYP cells [3]; 8.3 μM compound, no FO
  E105 death at 8.3 μM (no FO): 2.54
HeLa MKYP cells [3]; 25 μM compound, no FO
  E104 death at 25 μM (no FO): 3.01
HeLa MKYP cells [3]; with 1 μM FO
  E103 max death with 1 μM FO: 8.14

## c1ccc2c(c1)OC[C@H](N1CCOCC1)[C@H]2Nc1ncnc2[nH]c(C3CC3)cc12 (single isomer, unassigned) [EP-0040180]
[4]; highest safe dose/EC50
  Mito-Safety Index (highest safe dose/EC50): 97.54
[4]; mitotox or cytotox
  Highest safe dose (μM) (mitotox or cytotox): 25.0 µM
pS129 α-syn; increasing doses
  pS129 α-syn (250-12) in primary neuron culture: reduces
  pS129 α-syn (monomer) in primary neuron culture: reduces
  pS129 α-syn in primary neuron culture: reduces
Pathologic (pS129) α-syn
  pathologic (pS129) α-syn (250-12) from the striatum induced by PFF challenge: significantly reduces
  pathologic (pS129) α-syn (monomer) from the striatum induced by PFF challenge: significantly reduces
Cleaved caspase-3
  cleaved caspase-3 levels: do not significantly alter
HeLa MKYP cells [1]
  percentage of cells undergoing mitophagy: induce mitophagy in a dose dependent manner; also recorded: dose responsive increase in the percentage of cells undergoing mitophagy
HeLa MKYP cells [1]; read-out: Mitophagy induction EC50
  EC50: 260 nM
Gdf15, Tnfrsf12a
  expression of mitochondrial-stress related genes Gdf15 and Tnfrsf12a in kidney: reduced expression of these genes in a dose-responsive manner; also recorded: reduces expression of mitochondrial-stress related genes
Parkin
  Parkin recruitment to mitochondria: accelerate recruitment of Parkin to mitochondria; also recorded: dose responsive increase in the rate of Parkin recruitment to mitochondria
HeLa MKYP cells [3]; no FO, safe means DAPI+ <20%
  Highest safe dose (cytotoxicity; no FO; safe means DAPI+ <20%): 25.0 µM
HeLa MKYP cells [3]; with 1 μM FO
  Max % death with 1 μM FO: 10.4%
KIM-1
  KIM-1 (kidney-injury marker 1), urine: dose-dependent rescue of KIM-1; also recorded: reduces KIM-1
